BindingDB's records for doi:10.1021/jm0606185 (Uppsala University, 2006)

Target: Type-2 angiotensin II receptor (Sus scrofa)
Assay: Displacement of [125I]Ang2 from AT2 receptor in pig uterus membrane

Compound | Ki
CCCCOC(=O)NS(=O)(=O)c1sc(CCCC)cc1-c1ccc(Cn2ccnc2)cc1 [N-butyloxycarbonyl-3-(4-imidazol-1-ylmethylphenyl)-5-butylthiophene-2-sulfonamide] | 5 nM
CCCCOC(=O)NS(=O)(=O)c1ccc(OC(C)C)cc1-c1ccc(Cn2ccnc2)cc1 [N-butyloxycarbonyl-2-(4-imidazol-1-ylmethylphenyl)-4-iso-propoxybenzenesulfonamide] | 15 nM
CC(C)Cc1cc(-c2ccc(Cn3ccnc3)cc2)c(S(=O)(=O)NC(=O)OC(C)(C)C)s1 [N-tert-butyloxycarbonyl-3-(4-imidazol-1-ylmethylphenyl)-5-iso-butylthiophene-2-sulfonamide] | 63 nM
COCCOC(=O)NS(=O)(=O)c1sc(CC(C)C)cc1-c1ccc(Cn2ccnc2)cc1 [N-(methyloxy-ethyloxycarbonyl)-3-(4-imidazol-1-ylmethylphenyl)-5-iso-butylthiophene-2-sulfonamide] | 31 nM
CC(C)Cc1cc(-c2ccc(Cn3ccnc3)cc2)c(S(=O)(=O)NC(=O)OC(C)C)s1 [N-iso-propyloxycarbonyl-3-(4-imidazol-1-ylmethylphenyl)-5-iso-butylthiophene-2-sulfonamide] | 75 nM
CCCCS(=O)(=O)NS(=O)(=O)c1sc(CC(C)C)cc1-c1ccc(Cn2ccnc2)cc1 [N-butylsulfonyl-3-(4-imidazol-1-ylmethylphenyl)-5-iso-butylthiophene-2-sulfonamide] | 76 nM
CCCCOC(=O)NS(=O)(=O)c1ccc(CCCC)cc1-c1ccc(Cn2ccnc2)cc1 [N-butyloxycarbonyl-2-(4-imidazol-1-ylmethylphenyl)-4-butylbenzenesulfonamide] | 5 nM
CCCCS(=O)(=O)NC(=O)c1sc(CC(C)C)cc1-c1ccc(Cn2ccnc2)cc1 [N-butylsulfonyl-3-(4-imidazol-1-ylmethylphenyl)-5-iso-butylthiophene-2-carboxamide] | 79 nM
CCCCc1ccc(S(=O)(=O)NC(=O)OCC)c(-c2ccc(Cn3ccnc3)cc2)c1 [N-ethyloxycarbonyl-2-(4-imidazol-1-ylmethylphenyl)-4-butylbenzenesulfonamide] | 2 nM
CCCCN(C)C(=O)NS(=O)(=O)c1sc(CC(C)C)cc1-c1ccc(Cn2ccnc2)cc1 [N-(N-butyl-methylaminocarbonyl)-3-(4-imidazol-1-ylmethylphenyl)-5-isobutylthiophene-2-sulfonamide] | 4 nM
